From patent publication US20100104546A1, “MODULATORS OF ANTIGEN-DEPENDENT T CELL PROLIFERATION” (CHILDREN, YOUTH AND WOMEN'S HEALTH SERVICE, priority 2007, published 2010) come the findings set out here.

The subject of the assay is splenocytes. Briefly: Ex-vivo antigen (SRBC)-dependent splenocyte proliferation after administration to SRBC-immunized mice (thymidine incorporation). Type of assay: in vivo, Balb/c mice. Conditions: ip in mouse serum, between 10-80 mg/kg. On the procedure:
Mice were immunized with SRBC for 5 days. β-oxa-21:3n-3 was delivered in DMSO and injected intraperitoneally at the indicated doses. After 2 h spleens were removed and single cell suspensions were prepared. The splenocytes were cultured for 3 days in the presence (□), or absence (▪) of SRBC. Thymidine incorporation for final 16 hours of culture was determined. The data is expressed as mean±SEM of 3 separate experiments each in triplicate.
Mice were immunized with SRBC for 5 days. Then β-oxa-21:3n-3 dissolved in syngeneic mouse serum and injected intraperitoneally (A), intravenously (B) or gavaged/orally (C) at the indicated concentrations. After 2 h spleens were removed, single cell suspensions prepared and the splenocytes cultured for 3 days in the presence (▪), or absence (□) of SRBC. Thymidine incorporation for final 16 hours of culture was determined. The data is presented as the mean±SEM of 3 separate experiments separate experiments, each in quintuplets.
Mice were immunized with SRBC. After 5 days they were given β-thia-21:3n-3 at the indicated doses i.p. After 2 hours the spleens were removed and processed into single cell suppressions. These were then cultured in the presence (□), or absence of (▪) of SRBC to assess the proliferation. The results are expressed as mean±SEM of 3 experiments. (B) Effect of β-oxa-21:3n-3 on tetanus toxoid (TT)-induced ex vivo lymphocyte responses. Mice were immunized with TT subcutaneously and after 7 days were given β-oxa-21:3n-3 in mouse serum, intraperitoneally. Two hours later the spleen removed, single cell suspension prepared and examined for lymphoproliferation responses to TT in 5 day cultures. The results are expressed as mean±SEM of 3 experiments.
6-7 weeks old Balb/c mice were injected subcutaneously with 100 μl of 10% sheep red blood cells (IMVS, Inc., Adelaide, Australia) After 5 days 100 ul of β-oxa-21:3n-3 at indicated amounts were injected intraperitoneally, intravenously or gavaged orally. In another experimental set up mice were given β-tha-21:3n-3 i.p. In a third approach mice were infected subcutaneously with 100 μl of Tetanus Toxoid (2,500 Lf/ml). Then 7 days later were given β-oxa-21:3n-3. At indicated time points mice were sacrificed and spleens were removed. Single cell suspensions were prepared and white blood cells (WBC) were enriched by passing through Ficoll-Paque Plus (GE Healthcare). Cells were washed with RPMI-1640 containing 10% fetal bovine serum, 10 mM Hepes, antibiotics and glutamine (RPMI-10) and counted using an automated Cell-Dyne 3500R (Abbott, Inc. MA) instrument. Cells were viable (>98%) as judged by trypan blue exclusion. (β-oxa-21:3n-3)- or vehicle-treated mouse samples (200,000/well) were mixed either with SRBC (600,000/well) with 100 μl of Tetanus toxoid (50 Lf/ml) or phytohaemaglutinin (PHA) (2 μg/ml) or with PHA plus phorbol myristate acetate (PMA) (10 ng/ml) or with PMA plus calcium ionophore A23187 ([…]). Cells were cultured in 96 well U bottom plates (Nunc, Inc. Denmark) for 3 days (except for TT −5 days) at 37° C. under humidified air containing 5% CO2. At some instances 50 μl of supernatants were transferred to a new plate and frozen immediately at −70° C. to be used for cytokine measurements. Thymidine (50 μl, 1 μCi/well) was added at final 16 hours of culture. Cells were harvested and thymidine incorporation was determined using a beta scintillation counter.
A general note: Uptake of a labelled nucleoside into DNA is a usual measure of proliferation.

With β-thia-21:3n-3, the “lymphoproliferative response to SRBC” value is recorded as “inhibition of the lymphoproliferative response in a dose dependent manner”.
